Source: BindingDB's records for doi:10.1016/j.bmcl.2013.04.079 (Bristol-Myers Squibb, 2013)

Experiment: Antagonist activity at human CCR1 assessed as inhibition of HCC-1-induced chemotaxis

| SMILES | IC50 [nM] |
| --- | --- |
| CC(C)[C@@H](NC(=O)[C@@H]1CC[C@@H](O)C1)C(=O)N1CC[C@](O)(c2ccc(Cl)cc2)C(C)(C)C1 | 4 |

Experiment: Antagonist activity at human CCR1 assessed as inhibition of RANTES-induced chemotaxis

| SMILES | IC50 [nM] |
| --- | --- |
| CC(C)[C@@H](NC(=O)[C@@H]1CC[C@@H](O)C1)C(=O)N1CC[C@](O)(c2ccc(Cl)cc2)C(C)(C)C1 | 1 |

Experiment: Antagonist activity at human CCR1 assessed as inhibition of MPIF-1-induced chemotaxis

| SMILES | IC50 [nM] |
| --- | --- |
| CC(C)[C@@H](NC(=O)[C@@H]1CC[C@@H](O)C1)C(=O)N1CC[C@](O)(c2ccc(Cl)cc2)C(C)(C)C1 | 2.7 |

Experiment: Antagonist activity at human CCR1 assessed as inhibition of MIP1alpha-induced chemotaxis

| SMILES | IC50 [nM] |
| --- | --- |
| CC(C)[C@@H](NC(=O)[C@@H]1CC[C@@H](O)C1)C(=O)N1CC[C@](O)(c2ccc(Cl)cc2)C(C)(C)C1 | 2.1 |
| CC(C)[C@@H](NC(=O)[C@@H]1CCC[C@@H]1N)C(=O)N1CC[C@](O)(c2ccc(Cl)cc2)C(C)(C)C1 | 5.6 |
| CC(C)[C@@H](NC(=O)[C@@H]1CCC[C@@H]1O)C(=O)N1CC[C@](O)(c2ccc(Cl)cc2)C(C)(C)C1 | 3.1 |
| CC(C)[C@@H](NC(=O)c1cccc(-c2ccccc2NC(N)=O)c1)C(=O)N1CCC(c2ccc(Cl)cc2)CC1 | 153 |
| CC(C)[C@@H](NC(=O)c1cccc(S(N)(=O)=O)c1)C(=O)N1CCC(c2ccc(Cl)cc2)CC1 | 123 |
| CC(C)[C@@H](NC(=O)Cc1ccncc1)C(=O)N1CCC(c2ccc(Cl)cc2)CC1 | 107 |
| CC(C)[C@@H](NC(=O)c1cccc(-c2ccccc2NC(N)=O)c1)C(=O)N1CC[C@](O)(c2ccc(Cl)cc2)C(C)(C)C1 | 48 |
| CC(C)[C@@H](NC(=O)c1ccc(F)c(O)c1)C(=O)N1CCC(c2ccc(Cl)cc2)CC1 | 48 |
| CC(C)[C@@H](NC(=O)c1cccnc1)C(=O)N1CC[C@H](c2ccc(Cl)cc2)C(C)(C)C1 | 29 |
| CC(C)[C@@H](NC(=O)c1cccnc1)C(=O)N1CC[C@](O)(c2ccc(Cl)cc2)C2(CC2)C1 | 21 |
| CC(C)[C@@H](NC(=O)C1CCCC1)C(=O)N1CCN(c2ccc(Cl)cc2)C(C)(C)C1 | 18 |
| CC(=O)N[C@@H](C(=O)N1CC[C@](O)(c2ccc(Cl)cc2)C(C)(C)C1)C(C)C | 15 |
| CC(C)[C@@H](NC(=O)c1ccc(F)c(O)c1)C(=O)N1CC[C@](O)(c2ccc(Cl)cc2)C(C)(C)C1 | 13 |
| CC(C)[C@@H](NC(=O)[C@H]1CC[C@H](O)C1)C(=O)N1CC[C@](O)(c2ccc(Cl)cc2)C(C)(C)C1 | 12 |
| CC(C)[C@@H](NC(=O)c1ccccc1)C(=O)N1CC[C@](O)(c2ccc(Cl)cc2)C(C)(C)C1 | 10 |
| CC(C)[C@@H](NC(=O)c1cccc(S(N)(=O)=O)c1)C(=O)N1CC[C@](O)(c2ccc(Cl)cc2)C(C)(C)C1 | 9.9 |
| CC(C)[C@@H](NC(=O)c1cccc(C(=O)O)c1)C(=O)N1CC[C@](O)(c2ccc(Cl)cc2)C(C)(C)C1 | 8.9 |
| CC(C)[C@@H](NC(=O)C1CCCC1(O)CCN1CCOCC1)C(=O)N1CC[C@](O)(c2ccc(Cl)cc2)C(C)(C)C1 (stereo partly drawn) | 8.3 |
| CC(C)[C@@H](NC(=O)c1cccnc1)C(=O)N1CC[C@](O)(c2ccc(Cl)cc2)C(C)(C)C1 | 6.1 |
| CC(C)[C@@H](NC(=O)c1ccc(Cl)cc1)C(=O)N1CC[C@](O)(c2ccc(Cl)cc2)C(C)(C)C1 | 5.5 |
| CC(C)[C@@H](NC(=O)c1ccccc1Cl)C(=O)N1CC[C@](O)(c2ccc(Cl)cc2)C(C)(C)C1 | 4.7 |
| CCC(=O)N[C@@H](C(=O)N1CC[C@](O)(c2ccc(Cl)cc2)C(C)(C)C1)C(C)C | 3.6 |
| CC(C)[C@@H](NC(=O)Cc1ccncc1)C(=O)N1CC[C@](O)(c2ccc(Cl)cc2)C(C)(C)C1 | 3.5 |
| CC(C)[C@@H](NC(=O)[C@@H]1CC[C@H](O)C1)C(=O)N1CC[C@](O)(c2ccc(Cl)cc2)C(C)(C)C1 | 2.9 |
| CC(C)[C@@H](NC(=O)C1CCCC1)C(=O)N1CC[C@](O)(c2ccc(Cl)cc2)C(C)(C)C1 | 2.5 |
| CC(C)CC(=O)N[C@@H](C(=O)N1CC[C@](O)(c2ccc(Cl)cc2)C(C)(C)C1)C(C)C | 1.9 |
| CC(C)[C@@H](NC(=O)Cc1ccccc1)C(=O)N1CC[C@](O)(c2ccc(Cl)cc2)C(C)(C)C1 | 1.8 |
| CC(C)CCC(=O)N[C@@H](C(=O)N1CC[C@](O)(c2ccc(Cl)cc2)C(C)(C)C1)C(C)C | 1.2 |
| CC(C)[C@@H](NC(=O)[C@H]1CC[C@@H](O)C1)C(=O)N1CC[C@](O)(c2ccc(Cl)cc2)C(C)(C)C1 | 1.1 |

Experiment: Antagonist activity at human CCR1 assessed as inhibition of ieukotactin-1-induced chemotaxis

| SMILES | IC50 [nM] |
| --- | --- |
| CC(C)[C@@H](NC(=O)[C@@H]1CC[C@@H](O)C1)C(=O)N1CC[C@](O)(c2ccc(Cl)cc2)C(C)(C)C1 | 4.4 |
